Measurements published in patent EP0144459A1, “Prostaglandins, their preparation and pharmaceutical compositions” (Dr. Willmar Schwabe GmbH & Co., priority 1983, dated 1985).

Key:
[1] = tested on: isolierte Kaninchenaortastreifen; assay: Contractile effect on isolated rabbit aorta strips, dose-response compared with PGF2α (method of J.R. Vane); parameters: species or system Kaninchen; settings: isolated rabbit aorta strip
From the text: Zum Beispiel wurde die kontrahierende Wirkung von (15R)-12-epi-PGF2ß an einem isolierten Kaninchenaortastreifen mit der des natürlichen PGF2α verglichen. […] Die Wirkung dieser erfindungsgemäßen Verbindung setzt bei etwa 3-10^-6M/lein (vgl. Abb. 1). In dieser Konzentration ist das (15-S)-Epimere des 12 epi-PGF2ßunwirksam. [drawing]
Abb. 1 Kontraktile Wirkung von (15R)-12-epi-PGF2β (x) und PGF2α (.) auf isolierte Kaninchenaortastreifen in Abhängigkeit von der Dosis. (c = Konzentration; K = Kontraktionskraft) (Gemessen nach: J.R. Vane, Br.J. Pharmacol. Chemother. 23, 360-373 (1964)).

[2] = tested on: Langendorff-Herz; isolierte Aorta - Tracheen- und Fundus-Streifen; Kreislauf von Meerschweinchen und Hund; assay: Battery of further pharmacological tests compared with PGF2α: Langendorff heart (coronary flow, heart rate, inotropy); isolated aorta, trachea and fundus strips; circulation of guinea pig and dog (blood pressure, heart rate); settings: in all tests of the battery, compared with natural PGF2α
From the text: In mehreren anderen Tests wurden (15R)- und (15S)-12-epi-PGF2ß sowie die beiden analogen erfindungsgemäßen 15-Mithylverbindungen mit dem bekannten PGF2α verßlichen. […] Die 15-Methyl-Derivate der 12-epi-PGF2β zeigen analoge Unterschiede der Wirkungsqualität der jeweiligen 15Rund l5S-Epimeren.

SMILES	Wirkungsstärke (kontrahierende Wirkung) im Vergleich zu PGF2α ([1]; dose-response curve runs parallel to that of PGF2α)	minimal effective concentration ([1]; threshold concentration of the contractile effect (Abb. 1), read-out: Konzentration, bei der die kontrahierende Wirkung einsetzt) [µM]	Wirkungsqualität [2]	kontrahierende Wirkung ([1]; at the concentration of about 3-10^-6M/l)
CCCCC[C@@H](O)/C=C/[C@H]1[C@@H](C/C=C\CCCC(=O)O)[C@H](O)C[C@H]1O [(15R)-12-epi-PGF2β, 15R-12-epi-PGF2β]	ca. eine Zehnerpotenz niedrigeren Wirkungsstärke	~3	parallel zu den Wirkungen des natürlichen PGF2α	–
CCCCC[C@H](O)/C=C/[C@H]1[C@@H](C/C=C\CCCC(=O)O)[C@H](O)C[C@H]1O [(15S)-12-epi-PGF2β, 12-epi-PGF2β]	–	–	PGE2-ähnliche Wirkung	unwirksam
